# Data from patent US12116614B2, “Methods for determining antibiotic sensitivity” (priority 2020, dated 2024).
# “Also recorded” adds a separate entry of the source.
# Tests used:
# [1] = tested on: planktonic P. aeruginosa isolate JG1; experiment: MIC for planktonic clinical isolate; type: cell-based; conditions: planktonic P. aeruginosa isolate JG1 from CF sputum
# Method: (§1) Here both the planktonic and anti-DNABII NRel of JG1 were incubated with ¼ of the indicated MIC of tobramycin.
# MIC refers to minimal inhibitory concentration of an active agent such as a drug that is the lowest concentration that will inhibit the visible growth of a microorganism after overnight incubation and minimal bactericidal concentrations as the lowest concentration of an antimicrobial that will prevent the growth of an organism after subculture on antibiotic free media. Methods to determine these values are well known in the art and describe in Andrews, J. (2002) Antimicrob Chemother June; 49(6):1049.
# [2] = tested on: P. aeruginosa isolate JG1; experiment: Killing of planktonic and anti-DNABII NRel of clinical isolate at 1/4 MIC; type: cell-based
# Method: as §1
# A. baumanii [3] = experiment: Relative percent killing of planktonic versus anti-DNABII NRel by top-line antibiotics; type: cell-based; conditions: 16-hour biofilms, HuTipMab 30 minutes, antibiotic 2 hours
# Method: FIGS. 11A and 11B show relative percent killing of planktonic versus anti-DNABII NRel of five diverse species of human pathogens by each of the three current top-line antibiotics used to treat individuals with disease due to the indicated pathogen. Using the methods described herein, planktonic bacteria were recovered mid-log phase. NRel were induced by incubation of 16-hour biofilms with HuTipMab for 30 minutes. Planktonic and NRel populations were then incubated with each of three top-line antibiotics for 2 hours to determine relative percent killing. […] See boxed data in FIG. 11B for NTHI and S. aureus.
# [4] = tested on: NRel versus Non-Associated NTHI
# From the text: Applicant tested for this phenotype for either Amox/Clav or Trimethoprim/Sulfamethoxazole to determine when this sensitivity first appears and how long this NRel phenotype lasts (i.e. what is the window of opportunity in which to treat a patient with a biofilm disease?). Here, NRel are compared not to planktonic bacteria (due to their artificiality) but rather to “Non-Associated” bacteria which are those found in the supernatant above the biofilm but not associated with biofilm residence as this population represents those bacteria that naturally come off the biofilm or were never a part of the biofilm which is a normal aspect of the preferred bacterial lifestyle in nature. […] Box Legend: NRelAC—relative killing by Amox/Clav; NRel TS—relative killing by Trimethoprim/Sulfamethoxazole; open symbols are the same but for the non-associated populations of bacteria as now described in this legend. Data was generated with a murine anti-tip chimer antibody.
# Box Legend: NRelAC—relative killing by Amox/Clav; NRel TS—relative killing by Trimethoprim/Sulfamethoxazole; open symbols are the same but for the non-associated populations of bacteria as now described in this legend. Data was generated with a murine anti-tip chimer antibody.
# [5] = tested on: NTHI (biofilm-resident, planktonic, anti-rsPilA NRel, anti-IHF NRel); experiment: Antibiotic sensitivity of biofilm-resident, planktonic or NRel NTHI (2 h antibiotic exposure, CFU plating); type: cell-based, Nontypeable Haemophilus influenzae
# Method: Biofilms were established for 16 hr at 37° C. as described above. For biofilm-resident NTHI: biofilms were washed twice with DPBS and incubated in sBHI supplemented with the indicated antibiotics for at 37° C. 2 h. For planktonic NTHI: NTHI were incubated in sBHI for 3 hr as described above to reach log phase of growth, then diluted to the approximate concentration of either the anti-IHF (2×10^8 CFU/ml) or anti-rsPilA NRels (3×10^8 CFU/ml) to permit comparison between anti-IHF or anti-rsPilA NRels, (see FIG. 1). Planktonic NTHI were incubated with the indicated antibiotics at 37° C. for 2 hr. For NRel NTHI: anti-IHF or anti-rsPilA NRel, generated and collected as described above were incubated at 37° C. for 2 hr with the indicated antibiotics. CFU NTHI were determined by serial dilution and plating. Amoxicillin (Sigma-Aldrich, St. Louis, MO) and clavulanate (U.S. Pharmacopeia, Rockville, MD) were used at a ratio of 2:1. Trimethoprim (Sigma-Aldrich) and sulfamethoxazole (Santa Cruz Biotech, Dallas, TX) were used at a ratio of 1:5. […] All experiments were performed at least three times on separate days with two technical replicates for each treatment and control group.
# To avoid excessive manipulation or dilution of NRel NTHI, and to permit direct comparison of equal numbers of planktonic and NRel, the planktonic cell density was adjusted to the same CFU per ml as the NRel population in each experiment as follows: NTHI were incubated statically to mid log phase growth then diluted to either 3×10^8 CFU/ml for comparison with anti-rsPilA NRel collected at 6 h, or to 2×10^8 CFU/ml for comparison with anti-IHF NRel collected at 15 min (see FIG. 1). Applicant then determined the concentrations of amoxicillin (Sigma-Aldrich, St. Louis, MO) and clavulanate (U.S. Pharmacopeia, Rockville, MD), or of trimethoprim (Sigma-Aldrich) and sulfamethoxazole (Santa Cruz Biotech, Dallas, TX) that killed approximately 25% of planktonic NTHI at each density. The same antibiotic concentrations were used for the anti-IHF or anti-rsPilA NRel, the density-matched (same CFU/ml) planktonic NTHI, and the adherent biofilm for each relevant experiment. […] Applicant then assessed killing of anti-IHF or anti-rsPilA NRel by concentrations of amoxicillin plus clavulanic acid (“augmentin”, AMC) or trimethoprim plus sulfamethoxazole (TMP-SMX) that killed 25% of the planktonic NTHI at the same density.
# Anti-rsPilA or anti-IHF NRel were collected and sonicated as described above. After sonication for 2 min in a water bath sonicator to break up any NTHI aggregates, NRel or planktonic NTHI were incubated with the indicated antibiotics at 37° C. for 2 h, then serially diluted and plated on chocolate agar to quantify viable NTHI. To assay biofilm-resident NTHI, biofilms were established for 16 h at 37° C. as described above, washed twice with DPBS and incubated in sBHI supplemented with the indicated antibiotics at 37° C. After 2 h, biofilm-resident NTHI were collected by forceful pipetting, sonicated for 2 min and enumerated as described above. All experiments were performed at least three times on separate days with two or three technical replicates for each treatment and control group.
# P. aeruginosa = experiment: Time and dose-dependent release into NRel state from established biofilms by HuTipMab; type: cell-based; conditions: P. aeruginosa biofilm; versus HuIgG negative control
# Method: (§2) FIGS. 8A to 8F show the time and dose-dependence of release of six diverse species of human pathogens into the NRel state by anti-DNABII which occurs when established biofilms are incubated with a humanized monoclonal antibody raised against a chimeric peptide identified as IhfA5-mIhfB4 tip chimer (The humanized antibody utilized in this example (identified in the Figure and herein as “HuTipMab”) comprises heavy chain 1 (HCl) and light chain 2 (LC2) as disclosed herein) but not when similarly incubated with the negative control (“HulgG” a commercially available naïve human serum of the isotype IgG).
# [6] = tested on: nontypeable H. influenzae (NTHI); experiment: as above; type: cell-based; conditions: NTHI biofilm; versus HuIgG negative control
# Method: as §2
# A. baumanii [7] = experiment: as above; type: cell-based; conditions: A. baumanii biofilm; versus HuIgG negative control
# Method: as §2
# S. aureus = experiment: as above; type: cell-based; conditions: S. aureus biofilm; versus HuIgG negative control
# Method: as §2
# B. cenocepacia = experiment: as above; type: cell-based; conditions: B. cenocepacia biofilm; versus HuIgG negative control
# Method: as §2
# S. pneumoniae = experiment: as above; type: cell-based; conditions: S. pneumoniae biofilm; versus HuIgG negative control
# Method: as §2
# [8] = after exposure to anti-DNABII antibody
molecule,measurement,setting,value
NC[C@H]1O[C@H](O[C@H]2[C@H](O)[C@@H](O[C@H]3O[C@H](CO)[C@@H](O)[C@H](N)[C@H]3O)[C@H](N)C[C@@H]2N)[C@H](N)C[C@@H]1O [tobramycin],MIC,[1],4086 μg tobramycin/ml
same,killing of anti-DNABII NRel of JG1 compared to planktonic,"[2]; 1/4 MIC tobramycin, n=3, p≤0.01",significantly more sensitive to killing
same,planktonic JG1 killed,[2]; 1/4 of the MIC of tobramycin,~25%
same,relative killing of anti-DNABII NRel versus planktonic,A. baumanii [3],not killed significantly greater
amoxicillin and clavulanic acid [A/C],sensitivity of anti-DNABII NRel to killing compared to Non-Associated bacteria,[4]; NRel induced with murine anti-tip chimer antibody,significantly greater sensitivity
same,time at which sensitivity of anti-DNABII NRel reaches a maximum,[4]; [8],≤ 2 h
same,time at which significantly greater sensitivity of anti-DNABII NRel occurs,[4]; [8],≤ 5 min
same,time until which greater sensitivity of anti-DNABII NRel lasts,[4]; [8],~3 h
same,time by which greater sensitivity of anti-DNABII NRel wanes,[4]; post exposure to anti-DNABII antibody,≤ 6 h
same,sensitivity of biofilm-resident NTHI to killing,"[5]; 16 h biofilm, 2 h antibiotic",minimal sensitivity
same,sensitivity to killing of anti-IHF NRel compared to biofilm-resident NTHI,"[5]; NRel after 15 min anti-IHF, 2 h antibiotic",significantly more sensitive
same,sensitivity to killing of anti-IHF NRel compared to planktonic NTHI,"[5]; NRel after 15 min anti-IHF, 2 h antibiotic at concentration killing ~20-25% of planktonic NTHI",significantly more sensitive
same,sensitivity to killing of anti-rsPilA NRel compared to biofilm-resident NTHI,"[5]; NRel after 6 h anti-rsPilA, 2 h antibiotic",significantly more sensitive
same,sensitivity to killing of anti-rsPilA NRel compared to planktonic NTHI,"[5]; NRel after 6 h anti-rsPilA, 2 h antibiotic at concentration killing ~20-25% of planktonic NTHI",only equally as sensitive; also recorded: only as equally as sensitive
same,sensitivity to killing of anti-rsPilA NRel compared to planktonic NTHI,"[5]; NRel after 6 h anti-rsPilA, 2 h antibiotic at concentration killing ~20-25% of planktonic NTHI, listed as AMC",only equally as sensitive
same,sensitivity to killing of time-matched anti-rsPilA NRel compared to planktonic NTHI,"[5]; NRel collected after 2 h, TMP-SMX 0.09 and 0.45 μg per ml, AMC 0.3 and 0.15 μg per ml, listed as AMC",only equally as sensitive; also recorded: equally susceptible
same,sensitivity to killing of time-matched anti-IHF NRel compared to planktonic NTHI,"[5]; NRel collected after 2 h, TMP-SMX 0.94 and 4.7 μg/ml, AMC 2.5 and 1.25 μg/ml, listed as AMC",significantly more sensitive; also recorded: significantly more susceptible
HuTipMab (antibody) heavy: EVQLVESGGGLVQPGGSLRLSCAASGFTFRTYAMSWVRQAPGKGLEWVATIGSDRRHTYYPDSVKGRFTISRDNSKNTLYLQMNSLRAEDTAVYYCVGPYDGYYGEFDYWGQGTLVTVSSASTKGPSVFPLAPSSKSTSGGTAALGCLVKDYFPEPVTVSWNSGALTSGVHTFPAVLQSSGLYSLSSVVTVPSSSLGTQTYICNVNHKPSNTKVDKKVEPKSCDKTHTCPPCPAPELLGGPSVFLFPPKPKDTLMISRTPEVTCVVVDVSHEDPEVKFNWYVDGVEVHNAKTKPREEQYNSTYRVVSVLTVLHQDWLNGKEYCKVSNKALPAPIEKTISKAKGQPREPQVYTLPPSREEMTKNQVSLTCLVKGFYPSDIAVEWESNGQPENNYKTTPPVLDSDGSFFLYSKLTVDKSRWQQGNVFSCSVMHEALHNHYTQKSLSLSPG light: DVVMTQSPLSLPVTLGQPASISCRSSQSLLDSDGKTFLNWLQQRPGQSPRRLIYLVSKRDSGVPDRFSGSGSGTDFTLKISRVEAEDVGVYYCWQGTHFPYTFGQGTKLEIKRTVAAPSVFIFPPSDEQLKSGTASVVCLLNNFYPREAKVQWKVDNALQSGNSQESVTEQDSKDSTYSLSSTLTLSKADYEKHKVYACEVTHQGLSSPVTKSFNRGEC,release into the NRel state over time,P. aeruginosa,"gradual, more linear increase over time"
same,release into the NRel state over time,[6],jump in the number of NRel at 30 mins regardless of dose
same,release into the NRel state over time,A. baumanii [7],jump in the number of NRel at 30 mins regardless of dose
same,release into the NRel state over time,S. aureus,jump in the number of NRel at 30 mins regardless of dose
same,release into the NRel state over time,B. cenocepacia,jump in the number of NRel at 30 mins regardless of dose
same,release into the NRel state over time,S. pneumoniae,"gradual, more linear increase over time"
